Measurements taken from US8795222B2, “Device and method for treatment of surface infections with nitric oxide” (Pulmonox Technologies Corp., priority 2000, dated 2014).

Experiments:
S. aureus = test: gNO dose study, colony growth on agar plates; type: cell-based
Procedure: FIG. 6 depicts a S. aureus dosage curve for exposure to gaseous NO (gNO) with bacteria grown on solid media. Relative percentages of growth of S. aureus colony forming units (cfu) at 50, 80, 120 and 160 parts per million (ppm) of nitric oxide compared with growth of S. aureus cfu in medical air (100%) are shown.
To study the effects of gaseous nitric oxide on potential pathogens, a custom gas exposure incubator was designed and validated for temperature, humidity, and gas concentrations, providing an environment that matches that of a microbiologic incubator, while enabling controlled exposure of precise concentrations of the gas. […] The gNO chamber allowed control and adjustment of following factors in all in vitro studies: gNO dose, total air flow, NO2 levels, O2 levels, CO2 levels, temperature, and humidity. For the initial pilot studies, two strains of bacterial pathogen were selected based on two proposed clinical applications of gNO for respiratory infections and topical application. P. aeruginosa is associated primarily with pulmonary disease, but may also be associated with skin infection such as in severe burns. S. aureus is associated with surface wound infections. Both of these micro-organisms were chosen for the pilot study.
The first step in the process of evaluating the direct effect of gNO on bacteria was to design a simple study to determine what dose, if any, would be an approximate lethal concentration level for microbes. Once an optimal dose was estimated, then a timing study would be conducted. For these initial studies, highly dense inoculums of P. aeruginosa and S. aureus suspensions (10^8 cfu/ml) were plated onto agar plates. These plates were then exposed to various concentrations of gNO in the exposure device in order to evaluate the effect on colony growth.

MRSA = test: Bacteriocidal time study, 200 ppm gNO, saline suspension; type: cell-based, Methicillin Resistant S. aureus
Procedure: Following the dose and time ranging studies, a series of experiments were performed to determine the time required to effectively induce a bacteriocidal effect with 200 parts per million of gNO, a concentration just above the dose used in the dose-ranging study, on a representative collection of drug resistant gram-positive and gram-negative strains of bacteria associated with clinical infection. A successful bacteriocidal effect was defined as a decrease in bacteria greater than 3 log10 cfu/ml. Further, C. albicans, Methicillin Resistant S. aureus (MRSA), a particularly resistant strain of P. aeruginosa from a cystic fibrosis patient, Group B Streptococcus, and M. smegmatis were also included to see if yeast, multi-drug resistant strains of bacteria, and actinomycetes have a similar response. The drug-resistant bacteria represent a variety of pathogens that contribute to both respiratory and wound infections.
For these experiments, saline was selected as a suspension media because it would not mask the direct effect of gNO as a bacteriocidal, whereas fully supplemented growth medium might introduce external variables (e.g., buffer or react with gNO). Other media might also provide metabolites and replenish nutrients that produce enzymes that protect bacteria from oxidative and nitrosative damage, thereby masking the effect of gNO. […] In saline, the colonies were static but remained viable. This is similar to the approach of Webert and Jean's use of animal models. Webert K E, et al (2000), Effects of inhaled nitric oxide in a rat model of Pseudomonas aeruginosa pneumonia, Crit. Care Med, 28(7):2397-2405 and Jean D, et al., (2002) Beneficial effects of nitric oxide inhalation on pulmonary bacterial clearance, Critical Care Medicine. 30(2):442-7.
The latent period was then followed by an abrupt death of all cells. Gram negative and gram positive bacteria, antibiotic resistant bacterial strains, yeast and mycobacteria were all susceptible to 200 ppm gNO. Of importance, is the observation that the two drug resistant bacteria strains were also susceptible.

[1] = Full thickness infected wound model, toxicity, serum NOx and methemoglobin; type: in vivo, rabbits
Excerpt: (§1) In vivo studies in animal models have further shown the beneficial effects of nitric oxide gas. In an animal model, full-thickness cutaneous wounds (Set A: four rabbits with eight 8.0 mm punch biopsies & Set B: 4 rabbits with two 50×15 mm wounds) were made on each side of dorsal midline and infected with equal volume of Staphylococcus aureus suspension on day zero. On day one, treated groups in A and B were respectively exposed to 200 and 400 ppm gNO for total of three days. Set A was exposed for two 4-hour sessions, interrupted by 1-hour of rest, inside a specialized restraining exposure chamber. A 24-hour continuous delivery model was used for animals in Set B by design of a specialized wound patch. Control groups were only exposed to medical grade air with corresponding flow rate. Four random sample punch biopsies (8.0 mm) were collected on post wounding days 3 and analyzed for bacterial content. Another four punch biopsies from both wound and normal skin tissue were collected for fibroblast viability analysis and toxic effects of gNO.
(§2) On average well over 10 fold drop (p<0.05) in bacterial content is observed in comparison between control and treated groups.
FIG. 12 indicates the level of methemoglobin (MetHb) in animal's blood following 6 day intermittent exposure to 200 ppm gNO.

[2] = test system: fibroblasts grown in a 3D matrix; test: Fibroblasts grown in a 3D matrix, migration and proliferation; type: cell-based; conditions: 200 ppm NO for 8 hours per day for 3 days; compared with air or conventional incubator
collagenase mRNA = test: mRNA expression after gNO exposure; type: cell-based; conditions: 200 ppm gNO; 24 hours and 48 hours
Excerpt: Witte M B, et al, (2002) Nitric oxide enhances […] wound healing in diabetes, Br J. Surg., 89:1594-601. Thus, Applicants believe that NO may upregulate expression of both collagenase (MMP-1) and gelatinase (MMP-2), which may be important in keeping the wound clean from necrotic tissue while not prolonging the inflammatory phase.

Staphylococcus aureus = test: Full thickness infected wound model, wound bacterial content; type: in vivo, rabbits
Excerpt: FIG. 9 illustrates wound bacterial content following topical application of 200 ppm gNO in a full thickness infected wound model in rabbits.
as §1, with “Set A was exposed for two 4-hour sessions, interrupted by 1-hour of rest, inside a specialized restraining exposure chamber.” left out
as §2

## [N]=O [gNO, nitric oxide]
S. aureus; 24 hours after gNO exposure, controls overgrew
  colony size and number after transfer to a conventional incubator: remained the same in size and number
S. aureus; gNO greater than 120 ppm, agar plates
  time required to achieve the >90% reduction of colony formation: 8 to 12 h
S. aureus; gNO greater than 120 ppm, agar plates, compared with medical air
  reduction of colony formation: greater than 90%
S. aureus; increasing gNO to 120 ppm, agar plates
  survival: 5-10%
MRSA
  LD100: 5 h
  Latent Period*: 3 h
MRSA; time to −2.5 log10 cfu/ml
  −2.5 Log10: 4.2 hrs
[1]; 200 ppm gNO intermittently for 6 days
  blood serum NOx (NO2 and NO3) level: None of the samples show an increased level of NOx
[1]; 200 ppm gNO, compared with control
  toxic effect or damage in the skin of treated animals: no toxic effect or damage were observed
[1]; 6 day intermittent exposure to 200 ppm gNO, compared with air control
  blood methemoglobin (MetHb) level: did not show an increase level of MetHB
[2]
  migration of fibroblasts: does not appear to affect
  proliferation of fibroblasts: does not appear to interfere
Collagenase mRNA
  expression of collagenase mRNA: increased
Staphylococcus aureus; 200 ppm gNO continuously for 72 hours, compared with medical air control
  wound bacterial content: significant bacterial reduction
Staphylococcus aureus; 400 ppm gNO, control versus treated, p<0.05
  drop in wound bacterial content: over 10 fold
